± gives the standard deviation of the averaged measurements.
Key:
Experiment in all cases: relative viability vs DMSO control (72 h) (fraction); higher = more viable cells
[1] = test system: A204
Summary of the method: (§1)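 A 5 µM positive control and 0.1% DMSO vehicle ran alongside sarcoma cell lines seeded in 384-well plates to reach 80–90% confluence. Serially diluted compound, 2.5 µl from source plates of 10 mM to 0.0002 mM, was added after 24 h, and the plates were held 72 h at 37 °C, 5% CO2. Relative viability was worked out from ATPLite readings as percent growth averaged over up to triplicate wells. The values were rescaled so that 1 is full and 0 is none.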

[2] = test system: G401
Summary of the method: as §1

[3] = test system: HS729
Summary of the method: as §1

[4] = test system: KHOS-240S
Summary of the method: as §1

[5] = test system: MES-SA
Summary of the method: as §1

[6] = test system: RD
Summary of the method: as §1

[7] = test system: SK-ES-1
Summary of the method: as §1

[8] = test system: SK-LMS-1
Summary of the method: as §1

[9] = test system: SW1353
Summary of the method: as §1

[10] = test system: SW872
Summary of the method: as §1

[11] = test system: SW982
Summary of the method: as §1

[12] = test system: VA-ES-BJ
Summary of the method: as §1

Cc1nc(Nc2ncc(C(=O)Nc3c(C)cccc3Cl)s2)cc(N2CCN(CCO)CC2)n1 [Dasatinib]
Conditions | relative viability
[1], 0.00017 µM | 1.08 ± 0.066
[1], 0.00051 µM | 1.04 ± 0.063
[1], 0.00152 µM | 1.06 ± 0.071
[1], 0.00457 µM | 1.02 ± 0.091
[1], 0.01372 µM | 0.83 ± 0.05
[1], 0.04115 µM | 0.501 ± 0.042
[1], 0.1235 µM | 0.376 ± 0.017
[1], 0.3704 µM | 0.356 ± 0.023
[1], 1.111 µM | 0.356 ± 0.04
[1], 3.333 µM | 0.314 ± 0.021
[1], 10 µM | 0.281 ± 0.014
[2], 0.00017 µM | 1 ± 0.044
[2], 0.00051 µM | 0.996 ± 0.022
[2], 0.00152 µM | 1.015 ± 0.0069
[2], 0.00457 µM | 1 ± 0.019
[2], 0.01372 µM | 0.959 ± 0.046
[2], 0.04115 µM | 0.876 ± 0.069
[2], 0.1235 µM | 0.833 ± 0.065
[2], 0.3704 µM | 0.789 ± 0.03
[2], 1.111 µM | 0.7831 ± 0.0071
[2], 3.333 µM | 0.69 ± 0.014
[2], 10 µM | 0.391 ± 0.017
[3], 0.00017 µM | 0.947 ± 0.023
[3], 0.00051 µM | 0.959 ± 0.03
[3], 0.00152 µM | 0.95 ± 0.053
[3], 0.00457 µM | 0.869 ± 0.022
[3], 0.01372 µM | 0.796 ± 0.026
[3], 0.04115 µM | 0.696 ± 0.014
[3], 0.1235 µM | 0.633 ± 0.012
[3], 0.3704 µM | 0.618 ± 0.0067
[3], 1.111 µM | 0.609 ± 0.035
[3], 3.333 µM | 0.585 ± 0.033
[3], 10 µM | 0.581 ± 0.043
[4], 0.00017 µM | 1.06 ± 0.053
[4], 0.00051 µM | 1.04 ± 0.04
[4], 0.00152 µM | 1.01 ± 0.047
[4], 0.00457 µM | 0.957 ± 0.068
[4], 0.01372 µM | 0.816 ± 0.043
[4], 0.04115 µM | 0.708 ± 0.011
[4], 0.1235 µM | 0.494 ± 0.035
[4], 0.3704 µM | 0.337 ± 0.017
[4], 1.111 µM | 0.279 ± 0.018
[4], 3.333 µM | 0.25 ± 0.0028
[4], 10 µM | 0.198 ± 0.01
[5], 0.00017 µM | 0.935 ± 0.021
[5], 0.00051 µM | 0.919 ± 0.036
[5], 0.00152 µM | 0.903 ± 0.033
[5], 0.00457 µM | 0.91 ± 0.017
[5], 0.01372 µM | 0.879 ± 0.03
[5], 0.04115 µM | 0.825 ± 0.028
[5], 0.1235 µM | 0.799 ± 0.02
[5], 0.3704 µM | 0.791 ± 0.011
[5], 1.111 µM | 0.8428 ± 0.0062
[5], 3.333 µM | 0.728 ± 0.013
[5], 10 µM | 0.258 ± 0.0097
[6], 0.00017 µM | 1.12 ± 0.095
[6], 0.00051 µM | 1.12 ± 0.074
[6], 0.00152 µM | 1.09 ± 0.032
[6], 0.00457 µM | 1.02 ± 0.025
[6], 0.01372 µM | 0.953 ± 0.054
[6], 0.04115 µM | 0.775 ± 0.03
[6], 0.1235 µM | 0.536 ± 0.017
[6], 0.3704 µM | 0.458 ± 0.032
[6], 1.111 µM | 0.426 ± 0.015
[6], 3.333 µM | 0.366 ± 0.0042
[6], 10 µM | 0.267 ± 0.0099
[7], 0.00017 µM | 1.04 ± 0.021
[7], 0.00051 µM | 1.03 ± 0.03
[7], 0.00152 µM | 1.038 ± 0.005
[7], 0.00457 µM | 1.05 ± 0.051
[7], 0.01372 µM | 1.02 ± 0.037
[7], 0.04115 µM | 0.975 ± 0.028
[7], 0.1235 µM | 0.993 ± 0.021
[7], 0.3704 µM | 0.934 ± 0.064
[7], 1.111 µM | 0.896 ± 0.058
[7], 3.333 µM | 0.673 ± 0.069
[7], 10 µM | 0.402 ± 0.0061
[8], 0.00017 µM | 1.03 ± 0.054
[8], 0.00051 µM | 1.06 ± 0.014
[8], 0.00152 µM | 1.09 ± 0.07
[8], 0.00457 µM | 1.04 ± 0.017
[8], 0.01372 µM | 1.03 ± 0.048
[8], 0.04115 µM | 0.895 ± 0.037
[8], 0.1235 µM | 0.722 ± 0.015
[8], 0.3704 µM | 0.623 ± 0.0083
[8], 1.111 µM | 0.611 ± 0.011
[8], 3.333 µM | 0.656 ± 0.024
[8], 10 µM | 0.4228 ± 0.0032
[9], 0.00017 µM | 0.979 ± 0.03
[9], 0.00051 µM | 0.982 ± 0.029
[9], 0.00152 µM | 0.996 ± 0.034
[9], 0.00457 µM | 0.956 ± 0.018
[9], 0.01372 µM | 0.888 ± 0.027
[9], 0.04115 µM | 0.704 ± 0.04
[9], 0.1235 µM | 0.59 ± 0.034
[9], 0.3704 µM | 0.46 ± 0.032
[9], 1.111 µM | 0.4271 ± 0.0015
[9], 3.333 µM | 0.411 ± 0.016
[9], 10 µM | 0.372 ± 0.0055
[10], 0.00017 µM | 1.03 ± 0.017
[10], 0.00051 µM | 1.02 ± 0.033
[10], 0.00152 µM | 1.01 ± 0.048
[10], 0.00457 µM | 0.957 ± 0.056
[10], 0.01372 µM | 0.86 ± 0.046
[10], 0.04115 µM | 0.779 ± 0.023
[10], 0.1235 µM | 0.639 ± 0.035
[10], 0.3704 µM | 0.551 ± 0.034
[10], 1.111 µM | 0.521 ± 0.029
[10], 3.333 µM | 0.481 ± 0.048
[10], 10 µM | 0.359 ± 0.012
[11], 0.00017 µM | 1.05 ± 0.044
[11], 0.00051 µM | 1.04 ± 0.049
[11], 0.00152 µM | 1.04 ± 0.04
[11], 0.00457 µM | 0.99 ± 0.042
[11], 0.01372 µM | 0.854 ± 0.053
[11], 0.04115 µM | 0.641 ± 0.033
[11], 0.1235 µM | 0.389 ± 0.018
[11], 0.3704 µM | 0.277 ± 0.0084
[11], 1.111 µM | 0.259 ± 0.0061
[11], 3.333 µM | 0.258 ± 0.0028
[11], 10 µM | 0.218 ± 0.0053
[12], 0.00017 µM | 1.04 ± 0.054
[12], 0.00051 µM | 1.04 ± 0.051
[12], 0.00152 µM | 1.04 ± 0.067
[12], 0.00457 µM | 0.996 ± 0.057
[12], 0.01372 µM | 0.856 ± 0.047
[12], 0.04115 µM | 0.688 ± 0.013
[12], 0.1235 µM | 0.502 ± 0.037
[12], 0.3704 µM | 0.447 ± 0.0063
[12], 1.111 µM | 0.413 ± 0.019
[12], 3.333 µM | 0.335 ± 0.038
[12], 10 µM | 0.246 ± 0.0048
